One assay deals with MRC5. In words: Antiproliferative activity against human MRC5 cells at 10 ug/ml after 72 hrs by resazurin dye-based spectrophotometric analysis relative to control. In kind it is functional. The conditions noted are these: dose 10 µg/ml.
Assay [1] concerns Zika virus. Put plainly: Inhibition of NS5 in Zika virus at 10 ug/ml after 10 mins in presence of nucleotide mix by fluorescence assay. The settings on record: dose 10.0 µg/ml.
The subject of assay [2] is Zika virus. In words: Inhibition of NS5 in Zika virus at 1 ug/ml after 10 mins in presence of nucleotide mix by fluorescence assay. The settings on record: dose 1.0 µg/ml.
Assay [3] has as its system Zika virus. Put plainly: Inhibition of NS5 in Zika virus at 50 ug/ml after 10 mins in presence of nucleotide mix by fluorescence assay. The conditions noted are these: dose 50.0 µg/ml.
Assay [4] has as its system Dengue virus. Put plainly: Inhibition of DENV RNA-dependent RNA polymerase at 1 ug/ml. The settings on record: dose 1.0 µg/ml.
In assay [5] the test system is Dengue virus. In words: Inhibition of DENV RNA-dependent RNA polymerase at 10 ug/ml. The conditions noted are these: dose 10.0 µg/ml.
Assay [6] relates to Dengue virus. In words: Inhibition of DENV RNA-dependent RNA polymerase at 50 ug/ml. The settings on record: dose 50.0 µg/ml.
The nature of assay [7]: Inhibition of DENV RNA-dependent RNA polymerase. Details: species or system Dengue virus.
Assay [8] deals with Dengue virus. Put plainly: Inhibition of DENV RNA-dependent RNA polymerase at 10 uM.

Turning to `CC1=C[C@@H]2CC(=O)C[C@H](C)[C@H]2[C@H](/C=C/C=C/C(=O)O)[C@@H]1/C(C)=C/CO`, the Activity in the assay with MRC5 is given as 100%. The inhibition was 0% in the assay on Zika virus [1]; 0% in the assay with Zika virus [2]; 25.5% in the assay with Zika virus [3]; 0% in the assay with Dengue virus [4]; 23.8% in the assay on Dengue virus [5]; 36.7% in the assay with Dengue virus [6].

In the assay on MRC5, `CC1=C[C@@H]2CC[C@@H](O)[C@H](C)[C@H]2[C@H](/C=C/C=C/C(=O)O)[C@@H]1/C(C)=C/CO` yielded an Activity of 98.1%. Also, the inhibition with Zika virus [1] stood at 8%; with Zika virus [2], 4.8%; in the assay with Zika virus [3], 33.7%; with Dengue virus [4], 0%; with Dengue virus [5], 29.7%; in the assay on Dengue virus [6], 42%.

Molecule `C/C=C(\C)[C@@H]1C(C)=C[C@@H]2C[C@@H](O)C[C@H](C)[C@H]2[C@@H]1/C=C/C=C/C(=O)O` displayed an Activity with MRC5 of 97%. For the same molecule, the inhibition in the assay on Zika virus [1] is 23.3%; in the assay on Zika virus [2], 9.6%; in the assay on Zika virus [3], 40.9%; with Dengue virus [4], 15.3%; in the assay on Dengue virus [5], 59.4%; with Dengue virus [6] it was 78.1%. The molecule further gave an IC50 in assay [7] of 19 µM.

In the case of `CC1=C[C@@H]2CCC[C@H](C)[C@H]2[C@H](/C=C/C=C/C(=O)O)[C@@H]1/C(C)=C/CO`, in the assay with MRC5, the Activity stood at 100%. The inhibition in the assay with Zika virus [1] came out at 21%; in the assay with Zika virus [2], 0%; in the assay with Zika virus [3], 38.3%; in the assay on Dengue virus [4], 13.2%; in the assay on Dengue virus [5], 51.2%; in the assay on Dengue virus [6] it was 75.5%. In addition, the IC50 in assay [7] came to 37.5 µM.

`CC1=C[C@@H]2C[C@H](O)C[C@H](C)[C@H]2[C@H](/C=C/C=C/C(=O)O)[C@@H]1/C(C)=C/CO` displayed an Activity in the assay on MRC5 of 85.8%. Besides, the inhibition stood at 5.5% in the assay with Zika virus [1]; 8.5% in the assay with Zika virus [2]; 18.4% in the assay with Zika virus [3]; 6.5% in the assay on Dengue virus [4]; 28.7% with Dengue virus [5]; 43.9% in the assay with Dengue virus [6].

`Nc1ncnc2c1ncn2[C@@H]1O[C@H](COP(=O)(O)OP(=O)(O)OP(=O)(O)O)C[C@H]1O` yielded an inhibition in the assay with Dengue virus [8] of 96.1%.

In turn, `CC(=O)OC/C=C(\C)[C@@H]1C(C)=C[C@@H]2CC[C@@H](O)[C@H](C)[C@H]2[C@@H]1/C=C/C=C/C(=O)O` showed an Activity in the assay on MRC5 of 93.5%. For the same molecule, the inhibition amounted to 18.1% in the assay with Zika virus [1]; 5.4% in the assay on Zika virus [2]; 39.6% in the assay on Zika virus [3]; 26% in the assay on Dengue virus [4]; 40.2% in the assay on Dengue virus [5]; 48.7% in the assay on Dengue virus [6].

Take `CC(=O)OC/C=C(\C)[C@@H]1C(C)=C[C@@H]2CC(=O)C[C@H](C)[C@H]2[C@@H]1/C=C/C=C/C(=O)O`: in the assay on MRC5, the Activity was found to be 98.8%. Moreover, the inhibition with Zika virus [1] was found to be 19.3%; with Zika virus [2] it was 13.8%; with Zika virus [3] it was 25.4%; in the assay with Dengue virus [4], 0%; in the assay on Dengue virus [5], 36.4%; in the assay with Dengue virus [6], 64.6%.

As for `CC(=O)OC/C=C(\C)[C@@H]1C(C)=C[C@@H]2CC[C@H](O)[C@H](C)[C@H]2[C@@H]1/C=C/C=C/C(=O)O`, in the assay on MRC5, the Activity is recorded as 95.6%. For the same molecule, the inhibition in the assay on Zika virus [1] came out at 20.7%; in the assay with Zika virus [2], 3%; in the assay on Zika virus [3], 56.3%; in the assay on Dengue virus [4], 10.5%; in the assay on Dengue virus [5], 61%; in the assay with Dengue virus [6], 85.4%. Also, the IC50 in assay [7] was determined as 13.6 µM.

For `C/C=C(\C)[C@@H]1C(C)=C[C@@H]2C[C@H](O)C[C@H](C)[C@H]2[C@@H]1/C=C/C=C/C(=O)O`, the Activity in the assay with MRC5 worked out at 99%. In addition, the inhibition with Zika virus [1] is 27.6%; in the assay with Zika virus [2] it was 4.9%; with Zika virus [3], 50.9%; in the assay on Dengue virus [4], 6.4%; in the assay with Dengue virus [5] it was 46%; with Dengue virus [6], 85%. This molecule also came in with an IC50 in assay [7] of 19 µM.

`C/C=C(\C)[C@@H]1C(C)=C[C@@H]2C[C@@H](OC(C)=O)C[C@H](C)[C@H]2[C@@H]1/C=C/C=C/C(=O)O`: the Activity in the assay on MRC5 is 91.9%. Further, the inhibition in the assay on Zika virus [1] came out at 21.5%; in the assay on Zika virus [2], 1.2%; in the assay with Zika virus [3], 47.7%; in the assay with Dengue virus [4] it was 2.8%; in the assay with Dengue virus [5] it was 62.3%; with Dengue virus [6], 88.9%. For the same molecule, in [7], half-maximal inhibition (IC50) required 15.5 µM.

In the assay on MRC5, `CC(=O)OC/C=C(\C)[C@@H]1C(C)=C[C@@H]2C[C@H](O)C[C@H](C)[C@H]2[C@@H]1/C=C/C=C/C(=O)O` returned an Activity of 98.5%. Further, the inhibition was 3.3% in the assay on Zika virus [1]; 0% in the assay on Zika virus [2]; 32% with Zika virus [3]; 4.7% in the assay on Dengue virus [4]; 28.9% with Dengue virus [5]; 52.3% with Dengue virus [6].

For the molecule `C/C=C(\C)[C@@H]1C(C)=C[C@@H]2CC(=O)C[C@H](C)[C@H]2[C@@H]1/C=C/C=C/C(=O)O`, in the assay on MRC5, the Activity is given as 96.9%. Moreover, the inhibition in the assay on Zika virus [1] worked out at 24.4%; in the assay with Zika virus [2], 6.3%; in the assay with Zika virus [3], 49.9%; in the assay on Dengue virus [4] it was 7.9%; in the assay on Dengue virus [5], 65.6%; with Dengue virus [6], 85.1%. In addition, in [7], it took 11.8 µM to reach half-maximal inhibition (IC50).

In the case of `CC1=C[C@@H]2C[C@@H](O)C[C@H](C)[C@H]2[C@H](/C=C/C=C/C(=O)O)[C@@H]1/C(C)=C/CO`, the Activity in the assay with MRC5 stood at 79.3%. The inhibition with Zika virus [1] came out at 6%; in the assay with Zika virus [2], 15.2%; in the assay with Zika virus [3] it was 15%; in the assay on Dengue virus [4], 2%; in the assay on Dengue virus [5] it was 49%; in the assay on Dengue virus [6], 42.8%.

In general, inhibition refers to the share of the control response that was lost under treatment. A word on the IC50: it is the concentration needed to halve the response being measured.

For the origin of these results see ChEMBL document CHEMBL4665704, “Carneic Acids from an Endophytic Phomopsis sp. as Dengue Virus Polymerase Inhibitors” (J Nat Prod, 2020).
